This note sets out measurements from patent US10874743B2, “IRAK degraders and uses thereof” (Kymera Therapeutics, Inc., priority 2017, dated 2020).

The target of the assay is T1, IRAK4 (Homo sapiens, UniProt Q9NWZ3).
T1 sequence (Q9NWZ3 1-460): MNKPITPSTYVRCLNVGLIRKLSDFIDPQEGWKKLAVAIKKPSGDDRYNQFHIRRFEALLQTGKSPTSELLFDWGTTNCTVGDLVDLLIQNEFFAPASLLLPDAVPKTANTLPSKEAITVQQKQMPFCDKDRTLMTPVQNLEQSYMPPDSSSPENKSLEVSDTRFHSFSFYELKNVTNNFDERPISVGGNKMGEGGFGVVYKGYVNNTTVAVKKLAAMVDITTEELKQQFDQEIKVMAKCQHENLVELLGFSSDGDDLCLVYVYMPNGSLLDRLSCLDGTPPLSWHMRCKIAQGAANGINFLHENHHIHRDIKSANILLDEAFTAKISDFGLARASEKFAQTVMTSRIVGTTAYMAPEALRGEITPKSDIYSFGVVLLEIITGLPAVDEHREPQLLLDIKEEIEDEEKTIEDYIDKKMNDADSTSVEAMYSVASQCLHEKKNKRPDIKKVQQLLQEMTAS
As to the kind of experiment: OCI-LY-10 degradation assay (western blot, % IRAK4 degraded after 4 hours). It is filed as cell-based. Further details: endogenous in cells; host or cells: OCI-LY10. To be noted: OCI-LY10 cells; for OCI-LY10 % IRAK4 Degradation (0.01 uM) / OCI-LY10 % IRAK4 Degradation (0.1 uM) / OCI-LY10 % IRAK4 Degradation (1 uM): 4 hours; for OCI-LY10 % IRAK4 Degradation (0.01 uM): 0.01 uM compound; for OCI-LY10 % IRAK4 Degradation (0.1 uM): 0.1 uM compound; for OCI-LY10 % IRAK4 Degradation (1 uM): 1 uM compound; for OCI-LY10 % IRAK4 Degradation: IRAK4 degraded after 4 hours, western blot. Summed up:
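IRAK4 loss after 4 h at 37° C was scored A (>50%), B (>20-50%) or C (<20%) from infrared western blots of RIPA lysates, 20-25 μg protein per lane. Compound was applied at 0.003-10 μM final to OCI-LY10 cells cultured in RPMI-1640 with 20% FBS and 55 μM 2-ME.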
(In general: Immunoblotting shows a protein as a band on a membrane.)

In the case of `O=C1CCC(N2C(=O)c3ccc(NC4CCN(CCOCCOCCNCc5ccc(-n6cc(NC(=O)c7coc(-c8ccnc(NCC9CC9)c8)n7)c(C(F)F)n6)cc5)CC4)cc3C2=O)C(=O)N1` (centres unmarked) [I-335], the “OCI-LY10 % IRAK4 Degradation (0.01 uM)” value is listed as “C (<20% degradation)”, the “OCI-LY10 % IRAK4 Degradation (0.1 uM)” value was “C (<20% degradation)” and the “OCI-LY10 % IRAK4 Degradation (1 uM)” value is “A (>50% degradation)”.
`CN(CCNCCCc1cccc2c1C(=O)N(C1CCC(=O)NC1=O)C2=O)C(=O)c1ccc(-n2cc(NC(=O)c3coc(-c4ccncc4)n3)c(C(F)F)n2)cc1` (centres unmarked) [I-364]: the “OCI-LY10 % IRAK4 Degradation (0.01 uM)” value was “C (<20% degradation)”, the “OCI-LY10 % IRAK4 Degradation (0.1 uM)” value was “C (<20% degradation)” and the “OCI-LY10 % IRAK4 Degradation (1 uM)” value is “C (<20% degradation)”.
As to `O=C1CCC(N2C(=O)c3ccc(CCCCCN4CCC(n5cc(NC(=O)c6coc(-c7ccnc(NCC8CC8)c7)n6)c(C(F)F)n5)CC4)cc3C2=O)C(=O)N1` (centres unmarked) [I-263], the “OCI-LY10 % IRAK4 Degradation (0.01 uM)” value was “C (<20% degradation)”, the “OCI-LY10 % IRAK4 Degradation (0.1 uM)” value is “C (<20% degradation)” and the “OCI-LY10 % IRAK4 Degradation (1 uM)” value was “C (<20% degradation)”.
In the case of `O=C1CCC(N2C(=O)c3ccc(NC4CN(CCOCCOCCNCc5ccc(-n6cc(NC(=O)c7coc(-c8ccnc(NCC9CC9)c8)n7)c(C(F)F)n6)cc5)C4)cc3C2=O)C(=O)N1` (centres unmarked) [I-339], the “OCI-LY10 % IRAK4 Degradation (0.01 uM)” value was “C (<20% degradation)”, the “OCI-LY10 % IRAK4 Degradation (0.1 uM)” value is recorded as “B (>20-50% degradation)” and the “OCI-LY10 % IRAK4 Degradation (1 uM)” value is reported as “A (>50% degradation)”.
With `NC(=O)c1nn(-c2ccc(C(=O)NCCOCCOCCNc3cccc4c3C(=O)N(C3CCC(=O)NC3=O)C4=O)cc2)cc1NC(=O)c1cccc(-c2ccnc(NCC(F)(F)F)c2)n1` (centres unmarked) [I-137], the “OCI-LY10 % IRAK4 Degradation” value is “B (>20-50% degradation)”.
The same measure, in the same setting: with `NC(=O)c1nn(C2CCN(CCOCCOCCOCCNc3cccc4c3C(=O)N(C3CCC(=O)NC3=O)C4=O)CC2)cc1NC(=O)c1coc(-c2ccnc(NCC(F)(F)F)c2)n1` (centres unmarked) [I-170, N-[3-carbamoyl-1-[1-[2-[2-[2-[2-[[2-(2,6-dioxo-3-piperidyl)-1,3-dioxo-isoindolin-4-yl]amino]ethoxy]ethoxy]ethoxy]ethyl]-4-piperidyl]pyrazol-4-yl]-2-[2-(2,2,2-trifluoroethylamino)-4-pyridyl]oxazole-4-carboxamide] the entry was “B (>20-50% degradation)”; with `CC[C@@H]1[C@H](F)C(=O)N(CCOCCOCCOCCOCCNc2cccc3c2C(=O)N(C2CCC(=O)NC2=O)C3=O)[C@@H]1COc1nccc2cc(C(N)=O)c(OC)cc12` (stereo partly drawn) [I-89, 1-[[(2S,3S,4S)-1-[2-[2-[2-[2-[2-[[2-(2,6-dioxo-3-piperidyl)-1,3-dioxo-isoindolin-4-yl]amino]ethoxy]ethoxy]ethoxy]ethoxy]ethyl]-3-ethyl-4-fluoro-5-oxo-pyrrolidin-2-yl]methoxy]-7-methoxy-isoquinoline-6-carboxamide], “C (<20% degradation)”.
On to `CN(CCCc1cccc2c1C(=O)N(C1CCC(=O)NC1=O)C2=O)Cc1ccc(-n2cc(NC(=O)c3coc(-c4ccnc(NCC5CC5)c4)n3)c(C(F)F)n2)cc1` (centres unmarked) [I-355], for which the “OCI-LY10 % IRAK4 Degradation (0.01 uM)” value is “B (>20-50% degradation)”, the “OCI-LY10 % IRAK4 Degradation (0.1 uM)” value is given as “B (>20-50% degradation)” and the “OCI-LY10 % IRAK4 Degradation (1 uM)” value is listed as “C (<20% degradation)”.
In the case of `N#Cc1ccc2ncc(-c3cccc(NC4CCN(CCCCCOCCOCCCCCNC(=O)COc5cccc6c5C(=O)N(C5CCC(=O)NC5=O)C6=O)C4)n3)n2c1` (centres unmarked) [I-204], the “OCI-LY10 % IRAK4 Degradation” value is “C (<20% degradation)”.
The same measure, in the same setting: with `N#Cc1ccc2ncc(-c3cccc(NC4CCN(CCOCCOCCOCCOCCOCCNc5cccc6c5C(=O)N(C5CCC(=O)NC5=O)C6=O)C4)n3)n2c1` (centres unmarked) [I-208] the entry was “C (<20% degradation)”.
